Assay type in all cases: functional
The target of experiment [1] is High affinity nerve growth factor receptor (Homo sapiens, UniProt P04629).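 Note: NTRK1 tested as one member of a kinome-wide profiling panel.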
Experiment [2] has as its target Mitogen-activated protein kinase 9 (Homo sapiens, UniProt P45984).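 Note: value from a kinome panel profiling assay, MAPK9 panel entry.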
A further experiment addresses Aurora kinase A (Homo sapiens, UniProt O14965).
Experiment [3] addresses Tyrosine-protein kinase receptor TYRO3 (Homo sapiens, UniProt Q06418).
Experiment [4] concerns the target BDNF/NT-3 growth factors receptor (Homo sapiens, UniProt Q16620).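 Note: NTRK2 measured as one member of a broad kinome-wide kinase profiling panel.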
For experiment [5], the target named is Cyclin-dependent kinase 5 (Homo sapiens, UniProt Q00535).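 Note: CDK5 measured as one member of a kinase profiling panel.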
Sequence of Cyclin-dependent kinase 5 (Q00535 whole entry): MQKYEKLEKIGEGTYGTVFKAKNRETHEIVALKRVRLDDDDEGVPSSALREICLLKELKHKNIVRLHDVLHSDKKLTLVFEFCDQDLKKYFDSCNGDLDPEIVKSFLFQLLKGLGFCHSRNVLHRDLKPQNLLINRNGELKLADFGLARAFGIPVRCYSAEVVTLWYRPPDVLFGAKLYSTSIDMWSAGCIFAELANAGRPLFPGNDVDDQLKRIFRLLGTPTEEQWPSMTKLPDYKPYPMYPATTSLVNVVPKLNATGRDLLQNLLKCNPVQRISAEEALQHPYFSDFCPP
The target of a further experiment is T1, Caspase-3 (Homo sapiens, UniProt P42574).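 Note: Dose-response selectivity test against caspase-3 for candidate inhibitors of sentrin-specific proteases (SENPs).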
T1 sequence (P42574 whole entry): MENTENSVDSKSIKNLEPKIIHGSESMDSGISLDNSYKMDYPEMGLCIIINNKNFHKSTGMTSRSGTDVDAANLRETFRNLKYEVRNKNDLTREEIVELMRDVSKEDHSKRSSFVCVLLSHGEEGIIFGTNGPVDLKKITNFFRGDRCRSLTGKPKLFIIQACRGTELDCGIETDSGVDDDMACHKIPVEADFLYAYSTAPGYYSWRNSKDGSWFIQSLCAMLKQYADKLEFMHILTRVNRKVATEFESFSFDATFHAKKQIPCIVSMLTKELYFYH

The target in experiment [6] is T2, Sentrin-specific protease 6 (Homo sapiens, UniProt Q9GZR1).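 Note: Luminescence-based dose-response confirmatory assay of SENP6 inhibition, following up an ultra-high-throughput screen.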
T2 sequence (Q9GZR1 whole entry): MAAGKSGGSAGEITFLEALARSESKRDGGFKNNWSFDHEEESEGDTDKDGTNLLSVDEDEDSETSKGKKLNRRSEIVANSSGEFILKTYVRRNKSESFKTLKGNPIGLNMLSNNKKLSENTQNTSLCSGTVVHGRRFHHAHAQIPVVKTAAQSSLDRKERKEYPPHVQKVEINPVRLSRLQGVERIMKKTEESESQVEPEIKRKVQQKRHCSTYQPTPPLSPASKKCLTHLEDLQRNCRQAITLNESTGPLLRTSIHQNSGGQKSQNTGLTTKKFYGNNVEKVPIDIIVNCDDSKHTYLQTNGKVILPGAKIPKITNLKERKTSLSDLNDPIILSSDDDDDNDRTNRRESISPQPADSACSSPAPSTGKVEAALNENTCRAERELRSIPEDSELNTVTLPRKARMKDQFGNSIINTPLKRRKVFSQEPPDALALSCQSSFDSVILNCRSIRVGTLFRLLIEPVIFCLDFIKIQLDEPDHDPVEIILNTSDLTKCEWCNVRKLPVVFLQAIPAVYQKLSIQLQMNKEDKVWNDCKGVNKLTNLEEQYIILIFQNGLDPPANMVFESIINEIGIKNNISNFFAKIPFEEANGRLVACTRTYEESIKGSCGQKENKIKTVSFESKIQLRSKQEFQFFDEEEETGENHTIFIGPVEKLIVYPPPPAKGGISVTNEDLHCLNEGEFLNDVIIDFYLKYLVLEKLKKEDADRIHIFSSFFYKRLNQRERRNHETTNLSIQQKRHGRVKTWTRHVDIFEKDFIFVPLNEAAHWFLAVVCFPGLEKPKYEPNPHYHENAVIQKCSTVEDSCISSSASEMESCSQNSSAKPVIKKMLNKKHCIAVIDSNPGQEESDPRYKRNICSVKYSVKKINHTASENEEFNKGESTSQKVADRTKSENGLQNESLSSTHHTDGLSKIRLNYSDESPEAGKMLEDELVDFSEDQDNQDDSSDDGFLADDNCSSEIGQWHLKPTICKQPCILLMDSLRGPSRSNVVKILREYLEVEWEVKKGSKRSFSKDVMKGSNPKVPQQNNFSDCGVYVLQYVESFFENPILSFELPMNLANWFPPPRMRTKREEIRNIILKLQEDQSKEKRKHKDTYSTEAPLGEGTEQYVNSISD

For experiment [7], the target named is T3, Sentrin-specific protease 7 (Homo sapiens, UniProt Q9BQF6).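 Note: Luminescence-based dose-response confirmation of ultra-high-throughput screening hits, measuring inhibition of SENP7.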
T3 sequence (Q9BQF6 whole entry): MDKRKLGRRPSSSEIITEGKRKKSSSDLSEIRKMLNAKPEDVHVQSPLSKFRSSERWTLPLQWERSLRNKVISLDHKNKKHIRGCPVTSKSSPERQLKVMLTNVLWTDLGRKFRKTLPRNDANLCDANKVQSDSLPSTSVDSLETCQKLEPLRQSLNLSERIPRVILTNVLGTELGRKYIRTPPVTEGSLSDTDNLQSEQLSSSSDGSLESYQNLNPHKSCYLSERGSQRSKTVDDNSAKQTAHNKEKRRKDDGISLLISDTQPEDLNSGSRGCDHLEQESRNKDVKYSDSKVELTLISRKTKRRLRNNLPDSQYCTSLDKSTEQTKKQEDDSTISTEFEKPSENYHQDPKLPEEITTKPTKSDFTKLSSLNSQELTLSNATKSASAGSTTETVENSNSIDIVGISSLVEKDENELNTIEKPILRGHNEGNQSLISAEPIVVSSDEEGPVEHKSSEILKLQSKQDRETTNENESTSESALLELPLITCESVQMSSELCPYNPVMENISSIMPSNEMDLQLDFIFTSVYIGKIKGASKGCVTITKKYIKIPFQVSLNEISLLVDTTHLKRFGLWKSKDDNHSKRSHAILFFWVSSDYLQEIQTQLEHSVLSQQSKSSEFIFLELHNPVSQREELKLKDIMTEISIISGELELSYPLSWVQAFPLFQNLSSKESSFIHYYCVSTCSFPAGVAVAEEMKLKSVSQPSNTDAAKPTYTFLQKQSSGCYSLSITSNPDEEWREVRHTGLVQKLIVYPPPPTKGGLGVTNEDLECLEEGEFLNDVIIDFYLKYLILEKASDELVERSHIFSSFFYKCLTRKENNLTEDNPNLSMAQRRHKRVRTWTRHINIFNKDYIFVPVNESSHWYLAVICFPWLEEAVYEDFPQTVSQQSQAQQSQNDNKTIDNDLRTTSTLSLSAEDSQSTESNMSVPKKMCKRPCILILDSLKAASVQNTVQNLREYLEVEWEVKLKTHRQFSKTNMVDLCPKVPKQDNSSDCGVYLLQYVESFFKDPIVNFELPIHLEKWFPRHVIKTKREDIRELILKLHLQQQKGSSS

Experiment [8] deals with T4, Sentrin-specific protease 8 (Homo sapiens, UniProt Q96LD8).
T4 sequence (Q96LD8 whole entry): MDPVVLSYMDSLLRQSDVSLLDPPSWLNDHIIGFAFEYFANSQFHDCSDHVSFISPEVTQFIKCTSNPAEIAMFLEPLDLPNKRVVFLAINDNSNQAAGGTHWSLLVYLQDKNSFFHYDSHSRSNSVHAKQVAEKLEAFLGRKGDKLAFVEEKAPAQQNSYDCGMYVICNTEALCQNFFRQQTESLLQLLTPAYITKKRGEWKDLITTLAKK

Activity calls are given as the source filed them. Bounds are passed on as bounds.

Sequence of BDNF/NT-3 growth factors receptor (Q16620 whole entry): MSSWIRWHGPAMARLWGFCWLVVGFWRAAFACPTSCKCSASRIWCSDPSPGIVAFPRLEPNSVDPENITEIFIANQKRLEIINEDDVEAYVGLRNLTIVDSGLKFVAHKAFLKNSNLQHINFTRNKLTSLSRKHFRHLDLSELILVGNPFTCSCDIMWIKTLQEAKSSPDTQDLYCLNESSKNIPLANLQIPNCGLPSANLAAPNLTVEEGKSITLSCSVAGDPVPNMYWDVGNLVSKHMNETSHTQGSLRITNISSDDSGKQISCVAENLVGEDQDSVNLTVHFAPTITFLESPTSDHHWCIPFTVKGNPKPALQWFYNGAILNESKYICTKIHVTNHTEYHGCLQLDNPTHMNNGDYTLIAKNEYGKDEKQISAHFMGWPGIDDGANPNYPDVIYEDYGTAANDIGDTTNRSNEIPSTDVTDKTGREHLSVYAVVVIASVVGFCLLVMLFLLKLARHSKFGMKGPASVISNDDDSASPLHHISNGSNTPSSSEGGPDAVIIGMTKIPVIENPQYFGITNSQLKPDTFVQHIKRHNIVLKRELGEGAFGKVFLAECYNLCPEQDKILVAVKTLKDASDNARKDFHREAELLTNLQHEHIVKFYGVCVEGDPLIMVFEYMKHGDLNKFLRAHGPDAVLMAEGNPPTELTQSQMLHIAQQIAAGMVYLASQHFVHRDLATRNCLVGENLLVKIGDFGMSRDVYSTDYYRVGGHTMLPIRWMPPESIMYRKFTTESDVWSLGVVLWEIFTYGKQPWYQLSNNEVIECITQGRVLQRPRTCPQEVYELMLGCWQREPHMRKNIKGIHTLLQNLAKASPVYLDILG
Sequence of Mitogen-activated protein kinase 9 (P45984 whole entry): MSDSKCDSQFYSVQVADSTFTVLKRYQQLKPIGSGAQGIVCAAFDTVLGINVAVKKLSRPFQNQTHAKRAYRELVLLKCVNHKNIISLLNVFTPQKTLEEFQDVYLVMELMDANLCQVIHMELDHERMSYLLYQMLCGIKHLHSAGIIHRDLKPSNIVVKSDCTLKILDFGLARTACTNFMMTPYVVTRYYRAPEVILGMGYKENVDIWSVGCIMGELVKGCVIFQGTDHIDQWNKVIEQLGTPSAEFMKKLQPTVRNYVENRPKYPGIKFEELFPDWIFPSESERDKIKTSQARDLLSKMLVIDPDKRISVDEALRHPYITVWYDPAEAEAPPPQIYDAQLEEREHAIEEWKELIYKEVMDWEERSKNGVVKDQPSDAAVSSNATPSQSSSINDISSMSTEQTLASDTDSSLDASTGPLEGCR
Sequence of Tyrosine-protein kinase receptor TYRO3 (Q06418 whole entry): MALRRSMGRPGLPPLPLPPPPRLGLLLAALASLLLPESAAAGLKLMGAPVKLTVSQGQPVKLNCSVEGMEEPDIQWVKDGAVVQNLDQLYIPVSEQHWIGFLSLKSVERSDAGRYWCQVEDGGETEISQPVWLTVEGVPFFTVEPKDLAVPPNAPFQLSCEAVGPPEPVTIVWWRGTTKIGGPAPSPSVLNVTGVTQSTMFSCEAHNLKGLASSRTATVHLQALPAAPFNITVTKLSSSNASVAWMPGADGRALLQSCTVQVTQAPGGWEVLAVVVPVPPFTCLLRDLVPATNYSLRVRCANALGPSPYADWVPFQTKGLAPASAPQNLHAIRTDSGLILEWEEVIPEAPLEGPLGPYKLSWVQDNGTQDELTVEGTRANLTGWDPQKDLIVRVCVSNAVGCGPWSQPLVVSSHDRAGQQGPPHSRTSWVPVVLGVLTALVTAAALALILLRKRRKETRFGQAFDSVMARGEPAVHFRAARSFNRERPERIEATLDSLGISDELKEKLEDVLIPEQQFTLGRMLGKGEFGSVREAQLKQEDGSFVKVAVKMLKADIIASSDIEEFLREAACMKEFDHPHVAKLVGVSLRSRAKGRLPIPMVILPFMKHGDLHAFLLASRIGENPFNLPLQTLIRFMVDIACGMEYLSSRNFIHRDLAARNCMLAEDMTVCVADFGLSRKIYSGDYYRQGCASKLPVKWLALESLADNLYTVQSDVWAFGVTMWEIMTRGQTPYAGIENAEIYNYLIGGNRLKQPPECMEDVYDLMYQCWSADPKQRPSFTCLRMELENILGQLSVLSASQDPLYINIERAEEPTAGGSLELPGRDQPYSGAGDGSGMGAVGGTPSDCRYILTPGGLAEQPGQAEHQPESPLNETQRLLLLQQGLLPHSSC
Sequence of Aurora kinase A (O14965 whole entry): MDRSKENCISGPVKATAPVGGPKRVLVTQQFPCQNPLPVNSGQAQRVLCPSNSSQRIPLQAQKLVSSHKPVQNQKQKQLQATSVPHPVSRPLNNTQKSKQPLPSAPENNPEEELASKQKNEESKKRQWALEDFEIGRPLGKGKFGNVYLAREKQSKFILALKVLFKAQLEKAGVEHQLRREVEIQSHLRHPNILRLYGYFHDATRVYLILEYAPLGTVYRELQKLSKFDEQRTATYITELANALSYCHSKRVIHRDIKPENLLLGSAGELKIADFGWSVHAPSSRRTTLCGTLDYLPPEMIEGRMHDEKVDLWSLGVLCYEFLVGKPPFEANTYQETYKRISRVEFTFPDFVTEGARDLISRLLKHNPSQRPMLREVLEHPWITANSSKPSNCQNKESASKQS
Sequence of High affinity nerve growth factor receptor (P04629 whole entry): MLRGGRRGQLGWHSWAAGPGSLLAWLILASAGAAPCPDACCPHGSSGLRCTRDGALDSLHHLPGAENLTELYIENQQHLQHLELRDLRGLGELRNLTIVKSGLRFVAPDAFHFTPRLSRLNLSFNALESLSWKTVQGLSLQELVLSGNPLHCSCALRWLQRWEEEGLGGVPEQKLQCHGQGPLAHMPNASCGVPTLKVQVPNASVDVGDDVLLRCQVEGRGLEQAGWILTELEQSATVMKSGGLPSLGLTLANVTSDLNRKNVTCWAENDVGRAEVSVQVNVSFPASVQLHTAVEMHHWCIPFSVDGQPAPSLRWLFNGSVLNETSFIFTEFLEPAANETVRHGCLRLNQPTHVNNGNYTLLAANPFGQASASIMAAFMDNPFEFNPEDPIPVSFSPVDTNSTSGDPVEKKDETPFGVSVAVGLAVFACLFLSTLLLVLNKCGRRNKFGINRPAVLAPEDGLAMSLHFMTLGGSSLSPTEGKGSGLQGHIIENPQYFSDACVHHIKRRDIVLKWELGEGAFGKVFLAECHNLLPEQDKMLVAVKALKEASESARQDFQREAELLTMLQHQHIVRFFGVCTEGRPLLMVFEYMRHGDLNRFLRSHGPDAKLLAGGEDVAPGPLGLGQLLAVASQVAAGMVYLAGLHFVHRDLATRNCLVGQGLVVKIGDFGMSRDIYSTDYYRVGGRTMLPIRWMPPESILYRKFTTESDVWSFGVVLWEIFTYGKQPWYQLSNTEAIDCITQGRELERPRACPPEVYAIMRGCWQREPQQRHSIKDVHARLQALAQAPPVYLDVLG

As to `COc1cccc(C(C)NC(=O)c2ccc(-c3ccncc3)s2)c1` (centres undefined), the Ki in [1] was > 3.16 µM (inactive); in experiment [2], > 3.98 µM (inactive); on Aurora kinase A it was 0.2 µM (active); in [3], > 3.16 µM (inactive); in experiment [4], > 3.98 µM (inactive); in experiment [5] it was > 3.16 µM (inactive).
For the compound `Cc1ccc(NC(=O)COc2cccc(/C=C3\SC(=S)N(CCC(=O)O)C3=O)c2)cc1Cl`, the IC50 was 70 µM (active) on Caspase-3, > 100 µM (inactive) in experiment [6], 18.3 µM (active) in experiment [7] and 3.14 µM (active) in [8].
For `O=Nc1c(-c2c(O)[nH]c3cc(Br)ccc23)[nH]c2ccccc12` the same measures were 64.3 µM (active), > 100 µM (inactive), 5.6 µM (active) and > 100 µM (inactive).

The values above are taken from ChEMBL document CHEMBL1201862, “PubChem BioAssay data set” (2004).
